The values below come from patent US4668682A, “2-Phenylalkyl-3-aminoalkyl-4(3H)-quinazolinone compound” (Mitsubishi Chemical Industries Limited, priority 1984, dated 1987).

One series has as its system acetylcolinesterase. The settings on record: Indian J. Pharm., 33, 80 (1971); cited from earlier work.
Series [1] relates to blood flow of the circumflex branch of left coronary artery (dog). Put plainly: Increasing activity of coronary blood flow in anesthetized dogs. In kind it is in vivo, dog (mongrel). The settings on record: Canis lupus familiaris, 0.1 mg/kg iv, read-out: Increase rate of coronary blood flow. The protocol: Increasing activity of coronary blood flow
Male and female mongrel dogs weighing 8 to 17.5 kg were anesthetized with intravenous administration of sodium pentobarbital at a dosage of 30 mg/kg. Under artificial respiration the chest was opened on the left side at the level of the fourth intercostal space and the heart was exposed. The circumflex branch of left coronary artery just below the junction of the anterior descending branch of left coronary artery was isolated in a width of approximately 1 cm, and a flow probe was placed around this artery in order to measure the blood flow of the circumflex branch of left coronary artery by means of an electromagnetic flow meter. During the tests, systemic blood pressure was monitored, and data obtained from tests where the mean blood presure was less than 65 mmHg were excluded from the final data. The pharmaceutical compound to be tested was dissolved in physiological saline or 50% ethanol/50% physiological saline and the thus obtained solution was intravenously administered at a dosage of 1 ml/10 kg through a polyethylene catheter which had been provided within the left femoral vein. The increasing activity of the blood flow of the circumflex branch of left coronary artery was evaluated and expressed in terms of increase rate of the blood flow after the administration of the compound to that of before the administration of the compound.

The nature of series [2]: Acute toxicity test (mouse, oral administration). The conditions noted are these: in vivo, male ICR mice, fasted 18 hours. The protocol:
Tests were made using groups each comprising five male ICR strain mice weighing 30 to 35 g and being kept under a fast for 18 hours. The compound to be tested was suspended in a 1% tragacanth solution. After the concentration of the suspensions was adjusted in a volume of 40 ml/kg, the compound was administered orally to the mouse.

The test system of series [3] is calcium induced contraction of the isolated thoracic aorta in rats. Put plainly: Calcium antagonistic activity: relaxation of calcium induced contraction of isolated thoracic aorta. In kind it is cell-based, rat (male Wistar strain). The conditions noted are these: spiral specimen of rat thoracic aorta, 80 mM potassium, 10 mM Ca++; relaxing activity; read-out: Minimum effective concentration. The protocol: Calcium antagonistic activity
Calcium antagonistic activity of the present compound was investigated by observing the effects on the calcium induced contraction of the isolated thoracic aorta in rats.
A piece of thoracic aorta was isolated from male Wistar strain rats weighing 350-450 g in order to prepare a spiral specimen. This specimen was suspended in a Krebs-Henseleit solution free from calcium. The contraction was evoked by an application of CaCl2 in the presence of 80 mM potassium so as to adjust the solution at a concentration of 10 mM Ca^++. The present compound to be tested was applied to the specimen which had been maximally contracted and was evaluated for its relaxing activity.

Series [4] has as its system spontaneously hypertensive rats (SHR), average blood pressure. The experiment in a line: Antihypertensive activity in spontaneously hypertensive rats. In kind it is in vivo, rat (SHR). The conditions noted are these: oral. As to the method: Antihypertensive activity
The compounds to be tested were administered orally to evaluate antihypertensive activity in spontaneously hypertensive rats (hereinafter SHR).
The average blood pressure of male SHR, 20 to 30 weeks old, was measured in a non-anestetised and non restraint state, through a catheter which had been chronically implanted into the abdominal aorta through the right fermoral artery, using an electromanometer. At the same time, the heart rate was measured by a tachometer triggered by the pulse pressure. The compound to be tested was suspended in a 1% tragacanth solution. After the concentration of the suspensions was adjusted in a volume of 5 ml/kg, the compound was administered orally to the SHR. The blood pressure and heart rate were measured 0.5, 1, 3, 6 and 24 hours after the administration.

Structures are written as SMILES. Structures can show the parent of a compound that is named as a salt.

As to `CCCCN(CCCC)CCCn1c(C)nc2ccc(Cl)cc2c1=O` [2-methyl-3-(3-dibutylaminopropyl)-6-chloro-4(3H)-quinazolinone], the “inhibitive activity of acetylcolinesterase” value in the series on acetylcolinesterase is recorded as “inhibitive activity of acetylcolinesterase”.

As for `CCN(CC)CCn1c(Cc2cc(OC)ccc2OC)nc2ccccc2c1=O` [Compound 13], in series [1], the change in vivo at 0.1 mg/kg stood at 32.7%. For the same compound, in series [2], the LD50 (in general, the dose at which mortality reaches 50%) is 700 mg/kg. Further, the minimal effective concentration in series [3] is 3 µM.

For `CCN(CC)CCCn1c(Cc2cc(OC)ccc2OC)nc2ccccc2c1=O` [Compound 14], the change in vivo at 0.1 mg/kg in series [1] came out at 42.7%. In addition, in series [3], the minimal effective concentration amounted to 1 µM.

Turning to `COc1ccc(OC)c(Cc2nc3ccccc3c(=O)n2CCN2CCCC2)c1` [Compound 15], in series [1], the change in vivo at 0.1 mg/kg turned out to be 45.3%. The minimal effective concentration in series [3] was 0.3 µM.

In the case of `CCN(CC)CCn1c(Cc2ccccc2OCc2ccccc2)nc2ccccc2c1=O` [Compound 19], the minimal effective concentration in series [3] was determined as 0.3 µM.

For the compound `CCN(CC)CCn1c(Cc2ccc(OCc3ccccc3)cc2)nc2ccccc2c1=O` [Compound 20], the minimal effective concentration in series [3] was found to be 0.3 µM.

With `CCN(CC)CCn1c(Cc2cc(OC)ccc2OC)nc2ccc(I)cc2c1=O` [Compound 26], the minimal effective concentration in series [3] stood at 1 µM.

As for `COc1ccc(OC)c(Cc2nc3ccc(OC(C)C)cc3c(=O)n2CCCN(C)C)c1` [Compound 30, 2-(2,5-Dimethoxyphenylmethyl)-3-(3-dimetylaminopropyl)-6-isopropoxy-4(3H)-quinazolinone maleate], the minimal effective concentration in series [3] came to 0.3 µM.

On to `COc1ccc(OC)c(Cc2nc3ccc(C)cc3c(=O)n2CCN2CCCC2)c1` [Compound 31], for which the change in vivo at 0.1 mg/kg in series [1] was determined as 42.5%. Moreover, the median lethal dose (LD50) in series [2] came to 1000 mg/kg. Moreover, in series [3], the minimal effective concentration was 1 µM.

`COc1ccc(OC)c(Cc2nc3ccc(OC(C)C)cc3c(=O)n2CCN(C)C)c1` [Compound 47]: the change in vivo at 0.1 mg/kg in series [1] amounted to 95.4%. Also, the 50% lethal dose (LD50) in series [2] was determined as 750 mg/kg. Moreover, in series [4] (10 mg/kg), the “Increase rate of average blood pressure after administration, after 1 hour” value (shortened to “Increase rate … after 1 hour”) is -12% and the “Increase rate of average blood pressure after administration, after 3 hours” value (“Increase rate … after 3 hours” below) is reported as -3%. The minimal effective concentration in series [3] worked out at 0.1 µM.

Turning to `COc1ccc(Cc2nc3ccc(OC(C)C)cc3c(=O)n2CCN(C)C)cc1` [Compound 50], the LD50 in series [2] amounted to 700 mg/kg. For the same compound, in series [4] (10 mg/kg), the “Increase rate … after 1 hour” value is reported as -17% and the “Increase rate … after 3 hours” value was -7%. For the same compound, the minimal effective concentration in series [3] is 0.3 µM.

Take `CCC(C)Oc1ccc2nc(Cc3cc(OC)ccc3OC)n(CCN(C)C)c(=O)c2c1` (stereo not shown) [Compound 63]: in series [1], the change in vivo at 0.1 mg/kg was 77.3%. Besides, the 50% lethal dose (LD50) in series [2] is 1200 mg/kg. The minimal effective concentration in series [3] stood at 0.3 µM.

On to `CCC(C)Oc1ccc2nc(Cc3cc(OC)ccc3OC)n(CCCN(C)C)c(=O)c2c1` (stereo not shown) [Compound 64], for which the change in vivo at 0.1 mg/kg in series [1] turned out to be 47.6%. In addition, in series [3], the minimal effective concentration came to 0.3 µM.

With `COc1ccc(Cc2nc3cc(OC)c(OC(C)C)cc3c(=O)n2CCN(C)C)cc1` [Compound 82], the LD50 in series [2] is 750 mg/kg. In addition, in series [4] (10 mg/kg), the “Increase rate … after 1 hour” value is on record as -24% and the “Increase rate … after 3 hours” value was -15%.

As to `COc1ccc(OC)c(Cc2nc3ccccc3c(=O)n2CCN(C)CCc2ccc(OC)c(OC)c2)c1` [Compound 93], the minimal effective concentration in series [3] came to 0.03 µM.

On to `COc1ccc(OC)c(Cc2nc3ccc(OC(C)C)cc3c(=O)n2CCN(C)CCc2ccc(OC)c(OC)c2)c1` [Compound 102], for which the change in vivo at 0.1 mg/kg in series [1] turned out to be 53.6%. The compound also came in with an LD50 in series [2] of 1000 mg/kg. Moreover, in series [4] (10 mg/kg), the “Increase rate … after 1 hour” value is reported as -11% and the “Increase rate … after 3 hours” value is -2%. Moreover, in series [3], the minimal effective concentration is 0.03 µM.

`COc1ccc(OC)c(Cc2nc3ccc(OC(C)C)cc3c(=O)n2CCCN(C)CCc2ccc(OC)c(OC)c2)c1` [Compound 103]: the minimal effective concentration in series [3] worked out at 0.1 µM.

Consider `COc1ccc(OC)c(Cc2nc3ccc(C)cc3c(=O)n2CCN(C)CCc2ccc(OC)c(OC)c2)c1` [Compound 114], for which the minimal effective concentration in series [3] is 0.1 µM.

For `COc1ccc(OC)c(Cc2nc3ccc(I)cc3c(=O)n2CCN(C)CCc2ccc(OC)c(OC)c2)c1` [Compound 116], the minimal effective concentration in series [3] stood at 0.03 µM.

Regarding `CCOc1ccc2nc(Cc3cc(OC)ccc3OC)n(CCN(C)CCc3ccc(OC)c(OC)c3)c(=O)c2c1` [Compound 121], the minimal effective concentration in series [3] is 0.03 µM.

Turning to `COc1ccc([C@@H]2Sc3ccccc3N(CCN(C)C)C(=O)[C@@H]2OC(C)=O)cc1` [diltiazem, reference compound], in series [1], the change in vivo at 0.1 mg/kg stood at 91.2%. The LD50 in series [2] is 650 mg/kg. Also, the “Increase rate … after 1 hour” value in series [4] (30 mg/kg) was -8%; in series [4] (100 mg/kg), -28%. Further, the “Increase rate … after 3 hours” value in series [4] (30 mg/kg) is on record as 0%; in series [4] (100 mg/kg) it was -14%. For the same compound, in series [3], the minimal effective concentration stood at 0.3 µM.
